Reference: ChEMBL document CHEMBL4616726, “Optimization of the Linker Domain in a Dimeric Compound that Degrades an r(CUG) Repeat Expansion in Cells” (J Med Chem, 2020)
One block for each compound: values may come before it. Activity calls are given as the source filed them. The rule behind the calls is not given here.

Assays:
[1] = (§1) Induction of DNA damage in human DM1-patient derived myotubes at 1 uM assessed as induction of DNA double strand breaks by measuring gamma-H2AX foci formation by immunofluorescence assay relative to control; type: functional
[2] = biological target: r(CUG) repeat expansion; assay: Binding affinity to r(CUG)12 RNA repeat (unknown origin) by fluorescence based assay; type: nucleic-acid assay
[3] = biological target: r(CUG) repeat expansion; assay: Binding affinity to r(CUG)8 RNA repeat (unknown origin) by fluorescence based assay; type: nucleic-acid assay
[4] = tested on: r(CUG) repeat expansion; assay: Induction of r(CUG)exp RNA repeat in human DM1-patient derived myotubes assessed as improvement in MBNL1 exon 5 splicing defect at 5 uM by RT-qPCR analysis relative to control; type: nucleic-acid assay
[5] = Drug uptake in human DM1-patient derived myotubes by fluorescence based assay; type: ADME; settings: in vitro
[6] = tested on: r(CUG) repeat expansion; assay: Induction of r(CUG)10 RNA repeat (unknown origin) degradation at 0.3 to 2.5 uM; type: nucleic-acid assay
[7] = tested on: r(CUG) repeat expansion; assay: Induction of r(CUG)10 RNA repeat (unknown origin) degradation at 2.5 uM relative to control; type: nucleic-acid assay
[8] = species on record: Homo sapiens; assay: as §1; type: functional
[9] = tested on: r(CUG) repeat expansion; assay: Induction of DMPK mRNA 3'-UTR r(CUG)1300 repeat degradation in human DM1 patient-derived myotubes at 5 uM by RT-qPCR analysis relative to control; type: nucleic-acid assay
[10] = tested on: r(CUG) repeat expansion; assay: Induction of wild-type DMPK r(CUG)20 RNA repeat degradation in healthy human myotubes at 5 uM by RT-qPCR analysis relative to control; type: nucleic-acid assay
[11] = tested on: r(CUG) repeat expansion; assay: Induction of r(CUG)exp RNA repeat in human DM1-patient derived myotubes assessed as improvement in MBNL1 exon 5 splicing defect at 1 uM by RT-qPCR analysis relative to control; type: nucleic-acid assay
[12] = species on record: Homo sapiens; assay: Effect on alternative splicing of MAP4K4 exon 22a in human DM1-patient derived myotubes at 5 uM by RT-qPCR analysis relative to control; type: functional
[13] = species on record: Homo sapiens; assay: Effect on MBNL1 exon 5 splicing patterns in wild type human myotubes at 5 uM by RT-qPCR analysis relative to control; type: functional
[14] = tested on: r(CUG) repeat expansion; assay: Induction of r(CUG)exp RNA repeat in human DM1-patient derived myotubes assessed as reduction in number of foci containing r(CUG)exp-MBNL1 foci at 1 uM by RNA fluorescence in situ hybridization assay; type: nucleic-acid assay
[15] = tested on: r(CUG) repeat expansion; assay: Induction of DMPK mRNA 3'-UTR r(CUG)1300 repeat degradation in human DM1 patient-derived myotubes at 1 uM by RT-qPCR analysis relative to control; type: nucleic-acid assay
[16] = tested on: r(CUG) repeat expansion; assay: Induction of wild-type DMPK r(CUG)20 RNA repeat degradation in human DM1 patient myotubes at 1 uM by RT-qPCR analysis relative to control; type: nucleic-acid assay
[17] = tested on: r(CUG) repeat expansion; assay: Induction of CASK r(CUG)16 RNA repeat degradation in human DM1 patient myotubes at 1 uM by RT-qPCR analysis relative to control; type: nucleic-acid assay
[18] = tested on: r(CUG) repeat expansion; assay: Induction of SCUBE2 r(CUG)7 RNA repeat degradation in human DM1 patient myotubes at 1 uM by RT-qPCR analysis relative to control; type: nucleic-acid assay
[19] = tested on: r(CUG) repeat expansion; assay: Induction of SORCS2 r(CUG)7 RNA repeat degradation in human DM1 patient myotubes at 1 uM by RT-qPCR analysis relative to control; type: nucleic-acid assay
[20] = tested on: r(CUG) repeat expansion; assay: Induction of LRP8 r(CUG)11 RNA repeat degradation in human DM1 patient myotubes at 1 uM by RT-qPCR analysis relative to control; type: nucleic-acid assay
[21] = tested on: r(CUG) repeat expansion; assay: Induction of MAP3K4 r(CUG)11 RNA repeat degradation in human DM1 patient myotubes at 1 uM by RT-qPCR analysis relative to control; type: nucleic-acid assay
[22] = tested on: r(CUG) repeat expansion; assay: Induction of 5'-biotinylated r(CUG)12 RNA repeat (unknown origin) degradation assessed as disruption of r(CUG)12-MBNL1 complex formation incubated for 15 mins by TR-FRET assay; type: nucleic-acid assay
[23] = tested on: r(CUG) repeat expansion; assay: Induction of r(CUG)exp RNA repeat in human DM1-patient derived myotubes assessed as reduction in number of foci containing r(CUG)exp-MBNL1 foci at 5 uM by RNA fluorescence in situ hybridization assay; type: nucleic-acid assay
[24] = tested on: r(CUG) repeat expansion; assay: Induction of r(CUG)exp RNA repeat in human DM1-patient derived myotubes assessed as reduction in number of foci containing r(CUG)exp-MBNL1 foci at 5 uM by immunofluorescence assay; type: nucleic-acid assay
[25] = Drug localization in nucleus of human DM1-patient derived myotubes by live-cell fluorescence microscopy; type: ADME, subcellular
[26] = Drug localization in cytoplasm of human DM1-patient derived myotubes by live-cell fluorescence microscopy; type: ADME, subcellular

SMILES: Cc1c(N)nc([C@H](CC(N)=O)NC[C@H](N)C(N)=O)nc1C(=O)N[C@H](C(=O)N[C@H](C)[C@@H](O)[C@H](C)C(=O)N[C@H](C(=O)NCCc1nc(-c2nc(C(=O)NCCCNCCCCN)cs2)cs1)[C@@H](C)O)[C@@H](O[C@@H]1O[C@@H](CO)[C@@H](O)[C@H](O)[C@@H]1O[C@@H]1O[C@H](CO)[C@@H](O)[C@H](OC(N)=O)[C@@H]1O)c1cnc[nH]1
fold change (FC) [1]: 6

SMILES: Cc1c(N)nc([C@@H](CC(N)=O)NC[C@@H](N)C(N)=O)nc1C(=O)N[C@@H](C(=O)N[C@@H](C)[C@H](O)[C@@H](C)C(=O)N[C@H](C(=O)NCCc1nc(-c2nc(C(=O)NCCCNCCCCNC(=O)CN(CCCCN(C)C(=O)CCCOc3cccc(-c4nc5cc(-c6nc7cc(N8CCN(C)CC8)ccc7[nH]6)ccc5[nH]4)c3)C(=O)[C@H]3CCCN3C(=O)[C@H]3CCCN3C(=O)CCCOc3cccc(-c4nc5ccc(-c6nc7ccc(N8CCN(C)CC8)cc7[nH]6)cc5[nH]4)c3)cs2)cs1)[C@H](C)O)[C@H](O[C@@H]1O[C@@H](CO)[C@@H](O)[C@@H](O)[C@@H]1O[C@H]1O[C@H](CO)[C@@H](O)[C@H](OC(N)=O)[C@H]1O)c1cnc[nH]1
EC50 [2]: 280 nM
EC50 [3]: > 10000 nM
Activity [4]: 50%
Drug uptake [5]: Active
Activity [6]: Dose-dependent effect
Activity [7]: 20%
Activity [8]: inactive
Activity [9]: 45%
Activity [10]: inactive
Activity [11]: 30%
Activity [12]: inactive
Activity [13]: inactive
Activity [14]: Active
Activity [15]: Active
Activity [16]: inactive
Activity [17]: inactive
Activity [18]: inactive
Activity [19]: inactive
Activity [20]: inactive
Activity [21]: inactive

SMILES: C[C@@H](C(=O)N(C)[C@@H](C)C(=O)N(C)[C@@H](C)C(=O)N(C)[C@@H](C)C(=O)N(CCCCN(C)C(=O)CCCOc1cccc(-c2nc3cc(-c4nc5cc(N6CCN(C)CC6)ccc5[nH]4)ccc3[nH]2)c1)CC(N)=O)N(C)C(=O)CCCOc1cccc(-c2nc3ccc(-c4nc5ccc(N6CCN(C)CC6)cc5[nH]4)cc3[nH]2)c1
Activity [22]: Active
EC50 [2]: 280 nM
EC50 [3]: > 10000 nM
Activity [4]: 30%
Activity [23]: Active
Activity [24]: Active
Drug uptake [5]: Active
Drug uptake [25]: Active

The remaining lines, values ahead:

Activity [22]: Active
SMILES: CN1CCN(c2ccc3[nH]c(-c4ccc5[nH]c(-c6cccc(OCCCC(=O)N(C)CCCCN(CC(N)=O)C(=O)[C@@H]7CCCN7C(=O)[C@@H]7CCCN7C(=O)[C@@H]7CCCN7C(=O)[C@@H]7CCCN7C(=O)[C@@H]7CCCN7C(=O)CCCOc7cccc(-c8nc9cc(-c%10nc%11cc(N%12CCN(C)CC%12)ccc%11[nH]%10)ccc9[nH]8)c7)c6)nc5c4)nc3c2)CC1

Activity [22]: Active
Activity [4]: inactive
Drug uptake [25]: Active
Drug uptake [26]: Active
SMILES: C[C@@H](NC(=O)CCCOc1cccc(-c2nc3ccc(-c4nc5ccc(N6CCN(C)CC6)cc5[nH]4)cc3[nH]2)c1)C(=O)N[C@H](C)C(=O)N[C@H](C)C(=O)N[C@H](C)C(=O)N(CCCCN(C)C(=O)CCCOc1cccc(-c2nc3cc(-c4nc5cc(N6CCN(C)CC6)ccc5[nH]4)ccc3[nH]2)c1)CC(N)=O

Activity [22]: Active
SMILES: CN1CCN(c2ccc3[nH]c(-c4ccc5[nH]c(-c6cccc(OCCCC(=O)N(C)CCCCN(CC(N)=O)C(=O)[C@@H]7CCCN7C(=O)[C@@H]7CCCN7C(=O)[C@@H]7CCCN7C(=O)CCCOc7cccc(-c8nc9cc(-c%10nc%11cc(N%12CCN(C)CC%12)ccc%11[nH]%10)ccc9[nH]8)c7)c6)nc5c4)nc3c2)CC1
